Laboratory results taken from patent publication US4769461A, “Quinolinyl benzene hydroxamic acids as anti-inflammatory/antiallergic agents” (American Home Products Corporation, priority 1986, dated 1988).
Read-outs that look alike come from different tables or passages of the source. Blank lines part the entries; values can stand above or below the molecule they belong to.

Legend:
[1] = tested on: synthesis of the lipoxygenase product 5-HETE in rat polymorphonuclear leukocytes; experiment: Inhibition of 5-HETE synthesis by rat glycogen elicited polymorphonuclear leukocytes; format: cell-based, rat (female Wistar)
Procedure: The assay of this Example measures the ability of the compounds of the invention to inhibit the synthesis of 5-HETE by rat glycogen elicited polymorphonuclear leukocytes.
(§1) The assay is carried out as follows:
(§2) Peritoneal PMN are obtained from female Wistar rats (150-250 g) that received an i.p. injection of 6% glycogen (10 ml). After 24 hours, rats are killed by CO2 asphyxiation and peritoneal cells are harvested by peritoneal lavage using Ca^++ and Mg^++ free Hanks' balanced salt solution (HBSS). The peritoneal exudate is centrifuged at 400 g for 10 minutes. After centrifugation, the lavaged fluid is removed and the cell pellet is resuspended in HBSS containing Ca^++ and Mg^++ and 10 mM L-cysteine at a concentration of 2×10^7 cells/ml. To 1 ml portions of cell suspension, test drugs or vehicle are added and incubated at 37° C. for 10 minutes. Following this preincubation, the calcium ionophore (10 μM), A23187, is added together with 0.5 μCi [14 C] arachidonic acid and further incubated for 10 minutes. The reaction is stopped by the addition of ice cold water (3 ml) and acidifying to pH 3.5. […] After chromatography, the areas associated with 5-HETE standard are identified by autoradiography, cut out and quantitated by liquid scintillation.
The compounds of this invention are tested in this assay at a level of 10 μm. […] Some results are expressed as an IC50 value.

[2] = tested on: synthesis of the cyclooxygenase product PGE2 in rat polymorphonuclear leukocytes; experiment: Inhibition of synthesis of the cyclooxygenase oxidation product PGE2 (procedure of Example 5); format: cell-based, rat (female Wistar); conditions: tested at 10 μm
Procedure: as §2, with “3.5. Lipoxygenase products are then extracted twice into diethyl ether.” for “3.5.”, “scintillation. […]” for “scintillation.”
In this assay, the procedure of Example 5 is carried out as described. […] After chromatography, the areas associated with the PGE2 standard are identified by autoradiography, cut out and quantitated by liquid scintillation techniques.
The results are calculated as in Example 5.

[3] = tested on: LTD4 induced bronchoconstriction; experiment: Inhibition of bronchospasm induced in guinea pigs by exogenously administered leukotrienes C4 and/or D4; format: in vivo, guinea pig (male Hartley); conditions: 10 minutes before induction of bronchospasm; for ED50: Cavia porcellus, read-out: IC50 (the source's name)
Procedure: The assay of this Example measures the in vivo ability of the compounds of the invention to inhibit the bronchospasm induced in guinea pigs by the exogenously administered leukotrienes C4 and/or D4.
This assay is carried out as follows:
Male Hartley strain guinea pigs (350-600 g) are anesthetized with pentobarbital sodium (50 mg/kg, i.p.). The jugular vein is cannulated for injection of drugs and the carotid artery for monitoring blood pressure. The trachea is cannulated for artificial ventilation by a miniature Starling pump and for indirect measurement of respiratory volume changes. The animals are then pretreated with succinylcholine (2 mg/kg i.v.) and indomethacin (10 mg/kg i.v. in trizma 8.3 buffer, 9 minutes prior to leukotriene challenge). Submaximal bronchoconstrictor responses are established in control animals by varying the dose-levels of leukotriene. Intravenous dose-levels for LTC4 range from 0.4 to 0.6 μg/kg and for LTD4 the range is from 0.3 to 0.5 μg/kg. The aerosol bronchoprovocation dose for LTC4 is generated from 1.6 μM solution and for LTD4 from a 2.0 μM solution.
Test drugs (dissolved in a solvent such as propylene glycol, polyethylene glycol 400 or saline) are administered either intraduodenally, by aerosol or perorally at 2 or 10 minutes before induction of bronchospasm by administration of either LTC4 or LTD4 at the predetermined dose-levels. Aerosols of soluble drugs or leukotrienes are produced in-line for 10 seconds only by actuation of an ultrasonic nebulizer (Monaghan). Aerosolized drug dosage is expressed in terms of solution concentration and by a fixed aerosol exposure time (approximately 10 seconds). Control animals receive solvent (2 ml/kg i.d. or appropriate aerosol) in place of drug.
(§3) Respiratory volume changes are determined by a calibrated piston whose travel is recorded, via a linear transducer, on a Beckman Dynograph recorder. Maximal bronchoconstrictor volume is determined by clamping off the trachea at the end of the experiment. Overflow volumes at 1, 3 and 5 minutes are obtained from the recorded charts.
(§4) Area under the volume overflow curve (AUC) is estimated, using the overflow values at 1, 3 and 5 minutes, and expressed as a percentage of the maximal overflow AUC (equation 1): [formula] Drug effects are reported as percent inhibition of % max AUC values obtained from appropriate control animals (equation 2): [formula]
Student's t-test for unpaired data is used to determine statistical significance (p<0.05). IC50 values can also be determined by inverse prediction from linear regression lines through points between 10 and 90% inhibition.

[4] = tested on: carrageenan paw edema (acute inflammatory response); experiment: Rat carrageenan paw edema assay; format: in vivo, rat (male Sprague-Dawley); conditions: for % Inhibition at 100 mg/kg (peroral): 1 hour prior to carrageenan, edema at 3 hours; for ED50: Rattus norvegicus, po, read-out: Oral ED50 (95% C.L.) mg/kg
Procedure: The compounds of the invention are further tested in the rat carrageenan paw edema assay to determine their ability to inhibit the acute inflammatory response. This assay is carried out as follows: 140-180 gm male Sprague-Dawley rats, in groups of 6 animals are injected subcutaneously in the right paw with 0.1 ml of 1% carrageenan at zero time. Mercury plethysmographic readings (ml) of the paw are made at zero time and 3 hours later. Test compounds are suspended or dissolved in 0.5% methylcellulose and given perorally 1 hour prior to carrageenan administration. The increase in paw volume (edema in ml.) produced by the carrageenan is measured. […] Unpaired Student's t-test is used to determine statistical significance.

[5] = tested on: ovalbumin induced bronchospasm mediated by endogenous products of lipoxygenase oxidation of arachidonic acid; experiment: Inhibition of ovalbumin induced bronchospasm in guinea pigs by endogenous mediators of bronchoconstriction; format: in vivo, guinea pig (male Hartley); conditions: 10 minutes before ovalbumin challenge; for ED50: Cavia porcellus
Procedure: The assay of this Example measures the in vivo ability of the compounds of the invention to inhibit the bronchospasm induced in guinea pigs by endogenous mediators of the bronchoconstriction.
as §1
Male Hartley strain guinea pigs weighing 250-350 g are sensitized to chicken ovalbumin (OA) (10 mg i.p.) on days 1 and 3 and used starting on day 26. The animals are anesthetized with pentobarbital sodium (50 mg/kg, i.p.), bilateral vagotomy is performed, and the jugular vein is cannulated for injection of drugs and the carotid artery for monitoring blood pressure. The trachea is cannulated for artificial ventilation by miniature Starling pump and for indirect measurement of respiratory volume changes. Succinylcholine (2 mg/kg, i.v.) is administered to arrest spontaneous respiration. A cyclooxygenase inhibitor, indomethacin (10 mg/kg in tris buffer, i.v. at 9 min.) is administered to shunt arachidonic metabolism to lipoxygenase pathways. One minute later, chlorpheniramine (1.0 mg/kg in saline, i.v.) is given to attenuate the histaminic component of anaphylactic bronchoconstriction. Test drugs (dissolved in propylene glycol, polyethylene glycol or saline) are administered either intraduodenally, perorally or by aerosol at 2 or 10 minutes before antigen challenge. Anaphylactic bronchoconstriction is induced by administration by breaths of aerosolized OA (1%) or by intravenous administration of 0.1-0.3 mg/kg OA in saline. Control animals receive solvent (2 ml/kg i.d. or appropriate aerosol) in place of drug.
as §3, with “volumes at minutes 1, 3” for “volumes at 1, 3”, “and 5 are obtained” for “and 5 minutes are obtained”
as §4, with “2): [formula] Student's t-test for unpaired data is used to determine statistical significance. Dose response curves are generated and ED50 doses are interpolated from the regression lines.” for “2): [formula]”

[6] = 25 mg/kg perorally administered

SMILES: O=C(NOCc1ccccc1)c1cccc(OCc2ccc3ccccc3n2)c1 [Example 2B, O-benzyl-3-[(2-quinolinyl)methoxy]benzoic hydroxamate]
>50% Inhibitory at 10 μm ([1]; tested at 10 μm): + (those compounds having an inhibition of >50% are designated by a "+")
>50% Inhibition at 10 μm [2]: + (those compounds having an inhibition of >50% are designated by a "+")
% Inhibition ([3]; 25 mg/kg intraduodenally): 69.4%
% Inhibition at 100 mg/kg (peroral) [4]: 42%

SMILES: O=C(Cc1cccc(OCc2ccc3ccccc3n2)c1)NOCc1ccccc1 [Example 2C, O-benzyl-3-[(2-quinolinyl)methoxy]benzeneaceto hydroxamate]
% Inhibition at 100 mg/kg (peroral) [4]: 37%

SMILES: COc1ccc2c(c1)c(CC(=O)O)c(C)n2C(=O)c1ccc(Cl)cc1 [Indomethacin, reference compound]
ED50 [4]: 3.7 mg/kg

SMILES: CC(=O)Oc1ccccc1C(=O)O [Aspirin, reference compound]
ED50 [4]: 145 mg/kg

SMILES: CONC(=O)Cc1cccc(OCc2nc3ccccc3s2)c1 [Example 2E, O-methyl-3-[(2-benzthiazoyl)methoxy]benzoaceto hydroxamate]
% Inhibition at 100 mg/kg (peroral) [4]: 38%

SMILES: CONC(=O)Cc1cccc(OCc2nc3ccccc3n2C)c1 [Example 2D, O-methyl-3-[1-methyl(2-benzimidazoyl)methoxy]benzoaceto hydroxamate]
>50% Inhibition at 10 μm [2]: + (those compounds having an inhibition of >50% are designated by a "+")
% Inhibition at 100 mg/kg (peroral) [4]: 48%

IC50 ([1]; Leukocyte, rat PMN): 10.5 µM
SMILES: CONC(=O)Cc1cccc(OCc2ccc3ccccc3n2)c1 [Example 1, O-methyl-3-[(2-quinolinyl)methoxy]benzeneaceto hydroxamate]
% Inhibition ([3]; 25 mg/kg intraduodenally): 90.6%
% Inhibition ([3]; 25 mg/kg perorally): 86.3%
ED50 ([3]; po, perorally administered): 5.9 mg/kg
ED50 ([3]; intraduodenally administered): 1.8 mg/kg
% Inhibition of Max AUC ([5]; 25 mg/kg intraduodenal): 56.0%
% Inhibition of Max AUC [5, 6]: 82.8%
ED50 ([5]; po, perorally administered): 2.5 mg/kg
ED50 ([5]; intraduodenal): 7.3 mg/kg
% Inhibition at 100 mg/kg (peroral) [4]: 50%

SMILES: O=C(NO)c1cccc(OCc2ccc3ccccc3n2)c1 [Example 4A, 3-[(2-quinolinyl)methoxy]benzoic hydroxamic acid]
% Inhibition ([3]; 25 mg/kg intraduodenally): 32.8%

SMILES: CONC(=O)c1cccc(OCc2ccc3ccccc3n2)c1 [Example 2A, O-methyl-3-[(2-quinolinyl)methoxy]benzoic hydroxyamate]
% Inhibition ([3]; 25 mg/kg intraduodenally): 92.8%
% Inhibition ([3]; 25 mg/kg perorally): 72.4%
ED50 ([3]; po, perorally administered): 13.1 mg/kg
ED50 ([3]; intraduodenally administered): 3.16 mg/kg
% Inhibition of Max AUC ([5]; 25 mg/kg intraduodenal): 76.6%
% Inhibition of Max AUC [5, 6]: -1.5%
% Inhibition at 100 mg/kg (peroral) [4]: 32%

SMILES: O=C(Cc1cccc(OCc2ccc3ccccc3n2)c1)NO [Example 3, 3-[(2-Quinolinyl)methoxy]benzeneaceto hydroxamic acid]
% Inhibition ([3]; 25 mg/kg intraduodenally): 10%
